The target in data set [1] is T1, α1β2γ2 subtype of the GABA receptor (Rattus norvegicus, UniProt P18508+P62813+P63138).
T1 construct: expressed in transfected cells; host or cells: Xenopus laevis oocytes (cRNA injection)
Description: Electrophysiology: modulation of GABA currents in Xenopus oocytes expressing recombinant GABA-A receptors. The class given is cell-based. The conditions noted are these: for % stimulation of the GABA currents / % stimulation of the GABA currents (100 μM): α1β2γ2 in oocytes; for % stimulation of the GABA currents (100 μM): 100 μM compound with GABA.

The target in data set [2] is benzodiazepine-binding site of the GABA-A receptor. Put plainly: Displacement of tritiated flunitrazepam from brain membranes. The conditions noted are these: read-out: IC50 Flu / BZ receptor.
The subject of data set [3] is GABA-binding site of the GABA-A receptor. Description: Displacement of tritiated muscimol from brain membranes. The conditions noted are these: for Muscimol: stimulation: stimulation instead of displacement.
The target of data set [4] is Ro15-4513 binding (GABA-A receptor). Description: Ro15-4513 displacement. The conditions noted are these: for Ro15-4513 displacement: 100 μM.
For data set [5], the target named is picrotoxin-binding site of the GABA-A receptor. Description: Displacement of 35S-TBPS from brain membranes. More on the design: species or system rats. The conditions noted are these: for IC50: tissue not stated. (In general: Displacement assays read how much labelled ligand stays bound in the presence of the test substance.)
The target of data set [6] is T2, benzodiazepine-binding site of the GABA-A receptor (Rattus norvegicus, UniProt P18508+P62813).
T2 construct: IC50 Flu / BZ receptor; other: cerebellum (ce); other: cerebellum (ce; BZ1 subtype); other: 10 μM; cerebellum; other: 100 μM; other: 0.5 μM
Put plainly: Displacement of tritiated flunitrazepam from brain membranes. The conditions noted are these: 100 μM, tissue not stated.

Data set [7] addresses T3, picrotoxin-binding site of the GABA-A receptor.
T3 construct: other: cerebellum
Description: Displacement of 35S-TBPS from brain membranes. The conditions noted are these: cerebellum. More on the design: species or system rats.

For data set [8], the target named is T4, picrotoxin-binding site of the GABA-A receptor.
T4 construct: other: cortex
Description: Displacement of 35S-TBPS from brain membranes. More on the design: species or system rats. The conditions noted are these: cortex.

Data set [9] deals with recombinant receptors of the composition of αxβ2γ2 subunits in which x=1, 2, 3, 5, 6. Put plainly: Stimulation of the GABA current at recombinant receptors with other α subunits. The class given is cell-based. The conditions noted are these: α1 replaced by the α2, α3, α5 or α6 subunit.

Like-named read-outs stand apart in the source and are kept apart here.

By melting point is commonly meant the temperature, or range, at which the solid turns liquid. What is called inhibition is the percentage by which the read-out fell short of the control.

T1 sequence (P62813 28-455): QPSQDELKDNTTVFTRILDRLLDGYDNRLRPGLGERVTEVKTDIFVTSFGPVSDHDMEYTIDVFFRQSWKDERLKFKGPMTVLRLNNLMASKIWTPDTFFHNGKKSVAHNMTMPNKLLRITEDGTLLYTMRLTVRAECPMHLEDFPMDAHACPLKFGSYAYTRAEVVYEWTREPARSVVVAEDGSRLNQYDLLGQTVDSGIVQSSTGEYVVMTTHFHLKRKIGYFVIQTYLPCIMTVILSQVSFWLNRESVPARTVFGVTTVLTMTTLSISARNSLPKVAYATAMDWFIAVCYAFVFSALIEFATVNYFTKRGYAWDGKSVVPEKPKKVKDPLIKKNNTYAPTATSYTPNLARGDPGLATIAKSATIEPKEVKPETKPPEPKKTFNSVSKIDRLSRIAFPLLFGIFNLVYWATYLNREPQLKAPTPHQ
T1 sequence (P63138 25-474 limits assumed): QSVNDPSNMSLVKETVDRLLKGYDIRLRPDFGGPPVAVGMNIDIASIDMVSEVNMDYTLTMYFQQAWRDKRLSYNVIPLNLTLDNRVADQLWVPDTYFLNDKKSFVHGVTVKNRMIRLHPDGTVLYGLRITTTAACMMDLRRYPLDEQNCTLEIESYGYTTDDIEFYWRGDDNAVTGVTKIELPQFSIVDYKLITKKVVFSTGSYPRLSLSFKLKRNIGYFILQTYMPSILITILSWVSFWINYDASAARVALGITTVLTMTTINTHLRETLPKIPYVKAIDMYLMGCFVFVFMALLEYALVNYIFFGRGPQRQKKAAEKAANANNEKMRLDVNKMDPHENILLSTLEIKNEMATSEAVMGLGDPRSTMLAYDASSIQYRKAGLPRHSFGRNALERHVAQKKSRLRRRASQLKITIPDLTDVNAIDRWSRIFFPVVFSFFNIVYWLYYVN
T1 sequence (P18508 39-466): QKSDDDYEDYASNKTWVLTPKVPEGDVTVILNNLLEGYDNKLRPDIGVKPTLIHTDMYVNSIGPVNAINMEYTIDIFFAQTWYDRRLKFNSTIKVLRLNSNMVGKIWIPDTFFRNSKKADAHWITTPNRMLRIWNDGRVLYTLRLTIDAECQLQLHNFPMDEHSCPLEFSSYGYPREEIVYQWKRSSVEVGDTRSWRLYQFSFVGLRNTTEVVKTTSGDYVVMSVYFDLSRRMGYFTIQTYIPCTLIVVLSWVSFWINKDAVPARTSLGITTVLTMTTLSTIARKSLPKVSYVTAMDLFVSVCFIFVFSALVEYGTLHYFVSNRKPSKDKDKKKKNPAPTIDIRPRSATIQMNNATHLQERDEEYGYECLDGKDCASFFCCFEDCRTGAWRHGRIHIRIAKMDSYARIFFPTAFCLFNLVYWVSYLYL
T2 sequence (P62813 28-455): as the sequence (P62813 28-455) above
T2 sequence (P18508 39-466): as the sequence (P18508 39-466) above
T2 sequence (P63138 26-474 partner): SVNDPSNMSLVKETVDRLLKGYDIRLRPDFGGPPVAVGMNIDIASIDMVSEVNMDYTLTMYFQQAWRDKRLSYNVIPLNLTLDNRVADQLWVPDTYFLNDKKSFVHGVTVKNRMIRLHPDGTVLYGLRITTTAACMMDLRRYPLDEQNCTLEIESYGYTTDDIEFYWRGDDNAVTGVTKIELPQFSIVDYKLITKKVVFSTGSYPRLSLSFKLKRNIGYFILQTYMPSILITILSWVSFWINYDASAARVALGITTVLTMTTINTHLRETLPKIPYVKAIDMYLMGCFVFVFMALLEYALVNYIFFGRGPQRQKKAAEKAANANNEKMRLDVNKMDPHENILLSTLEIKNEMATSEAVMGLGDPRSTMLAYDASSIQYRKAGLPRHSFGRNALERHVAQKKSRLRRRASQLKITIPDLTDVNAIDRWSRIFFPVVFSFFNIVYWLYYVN

On to `O=C1CCC(C2c3ccccc3C=CN2C(=O)OCc2ccccc2)O1` (racemic) [Compound 75, (±)-(1R,2′R)-2-N-Benzyloxycarbonyl-1-(2,3,4,5-tetrahydro-5-oxo-2-furyl)-1,2-dihydroisoquinoline], for which the melting point lay within 109 to 111 °C. In addition, the “% stimulation of the GABA currents” value in data set [1] (10 μM compound) is on record as “+148 ± 21% (10 μM)”.

As to `O=C1CCC(C2c3ccccc3CCN2S(=O)(=O)c2ccc(C(F)(F)F)cc2)O1` (mixture of isomers) [Compound 70], the IC50 in [2] (tissue not stated) and in data set [4] was more than 100 µM each time. In addition, the “Muscimol: stimulation” value in [3] (100 μM) is recorded as “weak stimulation at 100 μM in the cortex alone”.

`O=C1CC[C@H]([C@H]2c3ccccc3CCN2S(=O)(=O)c2ccccc2)O1` (racemic) [Compound 65, (±)-(1R,2′R)-2-N-Benzenesulfonyl-1-(2,3,4,5-tetrahydro-5-oxo-2-furyl)-1,2,3,4-tetrahydroisoquinoline] yielded a melting point of 177 to 179 °C. For the same molecule, the “Muscimol: stimulation” value in data set [3] (100 μM) is listed as “weak stimulation”. The “% stimulation of the GABA currents (100 μM)” value (shortened to “% stimulation … (100 μM)”) in data set [1] was “+423%”. The “% stimulation … (100 μM)” value in data set [1] (listed as (+/−) 65) is given as “+423%”. The molecule further registered an IC50 in data set [5] of approximately 100 µM. The molecule also showed an IC50 in data set [4] of 20 µM.

For the molecule `O=C1C=C[C@@H]([C@H]2c3ccccc3CCN2C(=S)Oc2ccccc2)O1` (racemic) [Compound 64], the inhibition at 100 µM in data set [6] (read-out: Inhibition of the tritiated ligands % Flu (100 μM)) amounted to 0%. In addition, in data set [3] (100 μM), the Displacement of muscimol entry was “Muscimol: 100 μM = 0% Ro15-4513: 100 μM = 0%”. In addition, in [1], the “% stimulation … (100 μM)” value is given as “+265 ± 50%”. In addition, the IC50 in data set [7] was 30 µM; in data set [8] it was more than 100 µM. Further, the Ro15-4513 displacement entry in data set [4] is given as “Muscimol: 100 μM = 0% Ro15-4513: 100 μM = 0%”.

As to `COc1cc2c(cc1OC)[C@H]([C@@H]1CCC(=O)O1)NCC2` (racemic), the melting point came to 119 °C.

Turning to `COc1cc2c(cc1OC)C([C@H]1C=CC(=O)O1)N(C(=O)OCc1ccccc1)CC2` (mixture of isomers) [Compound 32a, (±)-(1R,2′R)-1-(2,5-Dihydro-5-oxo-2-furyl)-2-N-benzyloxycarbonyl-6,7-dimethoxy-1,2,3,4-tetrahydroisoquinoline], the “stimulation when the α1 subunit is replaced” value in [9] is listed as “greatly increased”. Also, the Displacement of muscimol result in [3] (concentration not given) is recorded as “Displacement of muscimol = 0%”. In addition, in data set [1] (α1β2γ2 receptor), the “stimulation of the GABA currents (in words)” value is recorded as “only weakly stimulates”.

As to `O=C1CCC(C2c3ccccc3CCN2S(=O)(=O)c2ccc(Cl)cc2)O1` (racemic) [Compound 66, (±)-(1R,2′R)-1-(2,3,4,5-Tetrahydro-5-oxo-2-furyl)-2-N-p-chlorobenzenesulfonyl-1,2,3,4-tetrahydroisoquinoline], the melting point lay in the range of 145 to 147 °C. Also, in [1], the “% stimulation … (100 μM)” value is given as “+479%”. In addition, the “% stimulation … (100 μM)” value in data set [1] (listed as (+/−) 66) was “+479%”.

Consider `COc1ccc(S(=O)(=O)N2CCc3ccccc3C2C2CCC(=O)O2)cc1` (mixture of isomers) [Compound 72], for which the “Inhibition of the tritiated ligands % Flu (100 μM)” value in data set [6] worked out at 0%. Also, in data set [3] (100 μM), the Displacement of muscimol result is “Muscimol: 100 μM = 0% Ro15-4513: 100 μM = 0%”. In data set [5], this molecule registered an IC50 of approximately 100 µM. In addition, the Ro15-4513 displacement result in [4] was “Muscimol: 100 μM = 0% Ro15-4513: 100 μM = 0%”.

In the case of `O=C1CCC(C2c3ccccc3CCN2C(=O)OCc2ccccc2)O1` (racemic) [Compound 54, (±)-(1R,2′R)-2-N-Benzyloxycarbonyl-1-(2,3,4,5-tetrahydro-5-oxo-2-furyl)-1,2,3,4-tetrahydroisoquinoline], the results for the IC50 in data set [2] (cerebellum (ce; BZ1 subtype)), in data set [2] (cortex (co = whole brain without cerebellum; BZ2 subtype)) and in data set [4] were 0.04 µM, 0.15 µM and 0.2 µM, respectively. Besides, in data set [1] (0.1 μM compound), the “% stimulation of the GABA currents” value is given as “+4 ± 10%”. For the same molecule, the “% stimulation … (100 μM)” value in [1] is reported as “+351 ± 17%”; in [1] (listed as (+/−) 54) it was “+351%”. Further, in data set [1] (stimulation by 10 μM compound, 1 μM flumazenil, α1β2γ2), the “% of the stimulation inhibited by flumazenil” value stood at 78%. In addition, the “Inhibition of the tritiated ligands % TBPS” value in data set [5] (10 μM) was 10 μM = 0%.

The record behind these values is patent US6649626B1, “N-substituted 1-(lactone) isoquinolones for treating nervous disorders” (Centre National de la Recherche Scientifique (CNRS), priority 1999, dated 2003).
